Patent US7189758B2, “Glucocorticoid mimetics, methods of making them, pharmaceutical formulations, and uses thereof” (Boehringer Ingelheim Pharmaceuticals, Inc., priority 2002, dated 2007)

Biological target: T1, human glucocorticoid receptor (GR) complex (Homo sapiens, UniProt P04150)
T1 construct: made in house; host or cells: insect cells (baculovirus expression), used as crude lysate
T1 sequence (P04150 1-777): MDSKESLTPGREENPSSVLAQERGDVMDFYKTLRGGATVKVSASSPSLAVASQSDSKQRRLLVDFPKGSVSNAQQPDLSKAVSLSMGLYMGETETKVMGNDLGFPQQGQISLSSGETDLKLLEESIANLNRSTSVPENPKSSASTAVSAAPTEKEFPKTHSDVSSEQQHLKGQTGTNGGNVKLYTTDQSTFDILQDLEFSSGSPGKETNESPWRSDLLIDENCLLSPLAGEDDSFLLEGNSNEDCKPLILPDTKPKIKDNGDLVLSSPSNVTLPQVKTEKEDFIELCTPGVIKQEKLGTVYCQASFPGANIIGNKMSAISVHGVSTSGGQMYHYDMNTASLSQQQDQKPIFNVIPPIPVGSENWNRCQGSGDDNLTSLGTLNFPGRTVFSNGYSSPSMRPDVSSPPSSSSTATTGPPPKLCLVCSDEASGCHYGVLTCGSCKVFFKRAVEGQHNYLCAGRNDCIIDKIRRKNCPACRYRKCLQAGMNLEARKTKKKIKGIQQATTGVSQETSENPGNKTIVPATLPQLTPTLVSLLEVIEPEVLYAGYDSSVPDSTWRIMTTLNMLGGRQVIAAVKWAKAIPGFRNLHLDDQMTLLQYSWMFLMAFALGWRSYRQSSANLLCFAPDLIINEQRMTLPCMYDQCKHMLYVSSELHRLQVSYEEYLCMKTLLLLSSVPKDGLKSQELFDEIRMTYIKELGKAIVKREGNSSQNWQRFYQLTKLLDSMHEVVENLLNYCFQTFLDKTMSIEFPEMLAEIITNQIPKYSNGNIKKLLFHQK
Experiment: Glucocorticoid receptor competitive binding assay (fluorescence polarization, TAMRA-labeled dexamethasone probe)
Settings: result in words only; IC50 values not given
Procedure: Compounds of the invention were evaluated for binding to the steroid receptor by a fluorescence polarization competitive binding assay.
A. Glucocorticoid Receptor Competitive Binding Assay
Step 1. Characterization of the Fluorescent Probe
The wavelengths for maximum excitation and emission of the fluorescent probe should first be measured. An example of such a probe is rhodamine (TAMRA)-labeled dexamethasone.
The affinity of the probe for the steroid receptor was then determined in a titration experiment. The fluorescence polarization value of the probe in assay buffer was measured on an SLM-8100 fluorometer using the excitation and emission maximum values described above. Aliquots of expression vector lysate were added and fluorescence polarization was measured after each addition until no further change in polarization value was observed. Non-linear least squares regression analysis was used to calculate the dissociation constant of the probe from the polarization values obtained for lysate binding to the probe.
Step 2. Screening for Inhibitors of Probe Binding
This assay uses fluorescence polarization (FP) to quantitate the ability of test compounds to compete with tetramethyl rhodamine (TAMRA)-labeled dexamethasone for binding to a human glucocorticoid receptor (GR) complex prepared from an insect expression system. The assay buffer was: 10 mM TES, 50 mM KCl, 20 mM Na2MoO4.2H2O, 1.5 mM EDTA, 0.04% w/v CHAPS, 10% v/v glycerol, 1 mM dithiothreitol, pH 7.4. Test compounds were dissolved to 1 mM in neat DMSO and then further diluted to 10× assay concentration in assay buffer supplemented with 10% v/v DMSO. Test compounds were serially diluted at 10× assay concentrations in 10% DMSO-containing buffer in 96-well polypropylene plates. Binding reaction mixtures were prepared in 96-well black Dynex microtiter plates by sequential addition of the following assay components to each well: 15 μL of 10× test compound solution, 85 μL of GR-containing baculovirus lysate diluted 1:170 in assay buffer, and 50 μL of 15 nM TAMRA-labeled dexamethasone. Positive controls were reaction mixtures containing no test compound; negative controls (blanks) were reaction mixtures containing 0.7 μM to 2 μM dexamethasone. […] IC50 values were determined by iterative non-linear curve fitting of the FP signal data to a 4-parameter logistic equation.

Compound	activity in the GR binding assay
CC(C)(CC(O)(Cc1ccccc1Br)C(=O)Nc1ccc2c(c1)COC2=O)c1cc(F)ccc1O (centres unmarked) [2-(2-Bromobenzyl)-4-(5-fluoro-2-hydroxyphenyl)-2-hydroxy-4-methylpentanoic acid (1-oxo-1,3-dihydroisobenzofuran-5-yl)amide]	potent activity
COc1ccc(F)cc1C(C)(C)CC(O)(Cc1ccccc1Br)C(=O)Nc1ccc2c(c1)COC2=O (centres unmarked) [2-(2-Bromobenzyl)-4-(5-fluoro-2-methoxyphenyl)-2-hydroxy-4-methylpentanoic acid (1-oxo-1,3-dihydroisobenzofuran-5-yl)amide]	potent activity
CC(C)(CC(O)(Cc1ccccc1Cl)C(=O)Nc1ccc2c(c1)COC2=O)c1cc(F)ccc1O (centres unmarked) [2-(2-Chlorobenzyl)-4-(5-fluoro-2-hydroxyphenyl)-2-hydroxy-4-methylpentanoic acid (1-oxo-1,3-dihydroisobenzofuran-5-yl)amide]	potent activity
COc1ccc(F)cc1C(C)(C)CC(O)(Cc1ccccc1Cl)C(=O)Nc1ccc2c(c1)COC2=O (centres unmarked) [2-(2-Chlorobenzyl)-4-(5-fluoro-2-methoxyphenyl)-2-hydroxy-4-methylpentanoic acid (1-oxo-1,3-dihydroisobenzofuran-5-yl)amide]	potent activity
CC(C)(CC(O)(Cc1ccccc1F)C(=O)Nc1ccc2c(c1)COC2=O)c1cc(F)ccc1O (centres unmarked) [2-(2-Fluorobenzyl)-4-(5-fluoro-2-hydroxyphenyl)-2-hydroxy-4-methylpentanoic acid (1-oxo-1,3-dihydroisobenzofuran-5-yl)amide]	potent activity
COc1ccc(F)cc1C(C)(C)CC(O)(Cc1ccccc1F)C(=O)Nc1ccc2c(c1)COC2=O (centres unmarked) [2-(2-Fluorobenzyl)-4-(5-fluoro-2-methoxyphenyl)-2-hydroxy-4-methylpentanoic acid (1-oxo-1,3-dihydroisobenzofuran-5-yl)amide]	potent activity
CC(C)(CC(O)(Cc1ccc(F)c(F)c1)C(=O)Nc1ccc2c(c1)COC2=O)c1cc(F)ccc1O (centres unmarked) [2-(3,4-Difluorobenzyl)-4-(5-fluoro-2-hydroxyphenyl)-2-hydroxy-4-methylpentanoic acid (1-oxo-1,3-dihydroisobenzofuran-5-yl)amide]	potent activity
COc1ccc(F)cc1C(C)(C)CC(O)(Cc1cccc(F)c1)C(=O)Nc1ccc2c(c1)COC2=O (centres unmarked) [2-(3-Fluorobenzyl)-4-(5-fluoro-2-methoxyphenyl)-2-hydroxy-4-methylpentanoic acid (1-oxo-1,3-dihydroisobenzofuran-5-yl)amide]	potent activity
CC(C)(CC(O)(Cc1ccc(F)cc1)C(=O)Nc1ccc2c(c1)COC2=O)c1cc(F)ccc1O (centres unmarked) [2-(4-Fluorobenzyl)-4-(5-fluoro-2-hydroxyphenyl)-2-hydroxy-4-methylpentanoic acid (1-oxo-1,3-dihydroisobenzofuran-5-yl)amide]	potent activity
Cc1noc(=O)c2ccc(NC(=O)C(O)(Cc3ccccc3)CC(C)(C)c3cc(F)ccc3O)cc12 (centres unmarked) [2-Benzyl-4-(5-fluoro-2-hydroxyphenyl)-2-hydroxy-4-methylpentanoic acid (4-methyl-1-oxo-1H-benzo[d][1,2]oxazin-6-yl)amide]	potent activity
COc1ccc(F)cc1C(C)(C)CC(O)(Cc1ccccc1)C(=O)Nc1ccc2c(c1)COC2=O (centres unmarked) [2-Benzyl-4-(5-fluoro-2-methoxyphenyl)-2-hydroxy-4-methylpentanoic acid (1-oxo-1,3-dihydroisobenzofuran-5-yl)amide]	potent activity
COc1ccc(F)cc1C(C)(C)CC(O)(Cc1ccccc1)C(=O)Nc1ccc2c(=O)onc(C)c2c1 (centres unmarked) [2-Benzyl-4-(5-fluoro-2-methoxyphenyl)-2-hydroxy-4-methylpentanoic acid (4-methyl-1-oxo-1H-benzo[d][1,2]oxazin-6-yl)amide]	potent activity
Cc1noc(=O)c2ccc(NC(=O)C(O)(CC3CCCCC3)CC(C)(C)c3ccccc3)cc12 (centres unmarked) [2-Cyclohexylmethyl-2-hydroxy-4-methyl-4-phenylpentanoic acid (4-methyl-1-oxo-1H-benzo[d][1,2]oxazin-6-yl)amide]	potent activity

Results, then the compound that gave them:

activity in the GR binding assay	Compound
potent activity	CC(C)(CC(O)(CC1CCCCC1)C(=O)Nc1ccc2c(c1)COC2=O)c1cc(F)ccc1O (centres unmarked) [2-Cyclohexylmethyl-4-(5-fluoro-2-hydroxyphenyl)-2-hydroxy-4-methylpentanoic acid (1-oxo-1,3-dihydroisobenzofuran-5-yl)amide]
potent activity	COc1ccc(F)cc1C(C)(C)CC(O)(CC1CCCCC1)C(=O)Nc1ccc2c(c1)COC2=O (centres unmarked) [2-Cyclohexylmethyl-4-(5-fluoro-2-methoxyphenyl)-2-hydroxy-4-methylpentanoic acid (1-oxo-1,3-dihydroisobenzofuran-5-yl)amide]
potent activity	COc1ccc(F)cc1C(C)(C)CC(O)(CC1CCCCC1)C(=O)Nc1ccc2c(=O)onc(C)c2c1 (centres unmarked) [2-Cyclohexylmethyl-4-(5-fluoro-2-methoxyphenyl)-2-hydroxy-4-methylpentanoic acid (4-methyl-1-oxo-1H-benzo[d][1,2]oxazin-6-yl)amide]
potent activity	CC(C)(CC(O)(C(=O)Nc1ccc2c(c1)COC2=O)C1CCCC1)c1cc(F)ccc1O (centres unmarked) [2-Cyclopentyl-4-(5-fluoro-2-hydroxyphenyl)-2-hydroxy-4-methylpentanoic acid (1-oxo-1,3-dihydroisobenzofuran-5-yl)amide]
potent activity	CC(C)(CC(O)(CC1CCCC1)C(=O)Nc1ccc2c(c1)COC2=O)c1cc(F)ccc1O (centres unmarked) [2-Cyclopentylmethyl-4-(5-fluoro-2-hydroxyphenyl)-2-hydroxy-4-methylpentanoic acid (1-oxo-1,3-dihydroisobenzofuran-5-yl)amide]
potent activity	CC(C)(CC(O)(CC(C)(C)c1ccccc1)C(=O)Nc1ccc2c(c1)COC2=O)c1ccccc1 [2-Hydroxy-4-methyl-2-(2-methyl-2-phenylpropyl)-4-phenylpentanoic acid (1-oxo-1,3-dihydroisobenzofuran-5-yl)amide]
potent activity	CC(C)(CC(O)(Cc1ccccc1O)C(=O)Nc1ccc2c(c1)COC2=O)c1cc(F)ccc1O (centres unmarked) [4-(5-Fluoro-2-hydroxyphenyl)-2-hydroxy-2-(2-hydroxybenzyl)-4-methylpentanoic acid (1-oxo-1,3-dihydroisobenzofuran-5-yl)amide]
potent activity	CC(c1ccccc1)C(O)(CC(C)(C)c1cc(F)ccc1O)C(=O)Nc1ccc2c(c1)COC2=O (centres unmarked) [4-(5-Fluoro-2-hydroxyphenyl)-2-hydroxy-4-methyl-2-(1-phenylethyl)pentanoic acid (1-oxo-1,3-dihydroisobenzofuran-5-yl)amide]
potent activity	Cc1ccccc1CC(O)(CC(C)(C)c1cc(F)ccc1O)C(=O)Nc1ccc2c(c1)COC2=O (centres unmarked) [4-(5-Fluoro-2-hydroxyphenyl)-2-hydroxy-4-methyl-2-(2-methylbenzyl)pentanoic acid (1-oxo-1,3-dihydroisobenzofuran-5-yl)amide]
potent activity	CC(C)(CC(O)(CCc1ccccc1)C(=O)Nc1ccc2c(c1)COC2=O)c1cc(F)ccc1O (centres unmarked) [4-(5-Fluoro-2-hydroxyphenyl)-2-hydroxy-4-methyl-2-phenethylpentanoic acid (1-oxo-1,3-dihydroisobenzofuran-5-yl)amide]
